Reference: publication PMC10044159, “Inhibitory effects of sulfenimides on human and bovine carbonic anhydrase enzymes” (Journal of Enzyme Inhibition and Medicinal Chemistry, 2023)

Tests used:
hCA-II = target: T1, hCA-II (Homo sapiens, UniProt P00918); assay: CO2 hydratase assay (Wilbur-Anderson); type: biochemical
T1 construct: gene CA2
Excerpt: CO2 hydratase assay (Wilbur-Anderson) on hCA-II

hCA-I = target: T2, hCA-I (Homo sapiens, UniProt P00915); assay: CO2 hydratase assay (Wilbur-Anderson); type: biochemical
T2 construct: gene CA1
T2 sequence (P00915 2-261): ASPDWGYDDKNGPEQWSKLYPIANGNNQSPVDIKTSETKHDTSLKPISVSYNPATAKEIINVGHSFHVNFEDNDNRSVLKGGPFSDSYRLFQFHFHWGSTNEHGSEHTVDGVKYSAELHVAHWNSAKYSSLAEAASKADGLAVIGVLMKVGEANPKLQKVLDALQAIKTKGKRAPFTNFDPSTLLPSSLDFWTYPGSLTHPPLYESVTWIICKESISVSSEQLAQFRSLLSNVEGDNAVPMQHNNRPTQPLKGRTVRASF
Excerpt: CO2 hydratase assay (Wilbur-Anderson) on hCA-I

Row | Structure (SMILES) | Ki (hCA-II) | Ki (hCA-I)
1 | COc1ccc(SN2C(=O)c3ccccc3C2=O)cc1 [1c] | 0.06 µM | 0.0379 µM
2 | O=C1c2ccccc2C(=O)N1SC1CCCCC1 [1h] | 0.0617 µM | 0.0503 µM
3 | O=C1c2ccccc2C(=O)N1Sc1nc2ccccc2[nH]1 [1i] | 0.0546 µM | 0.0254 µM
4 | O=C1c2ccccc2C(=O)N1Sc1ccc([N+](=O)[O-])cc1 [1d] | 0.152 µM | 0.119 µM
5 | O=C1c2ccccc2C(=O)N1SCc1ccccc1 [1g] | 0.052 µM | 0.0408 µM
6 | O=C1c2ccccc2C(=O)N1Sc1ccc(Br)cc1 [1f] | 0.044 µM | 0.023 µM
7 | O=C1c2ccccc2C(=O)N1Sc1ccc(Cl)cc1 [1e] | 0.143 µM | 0.0321 µM
8 | O=C1c2ccccc2C(=O)N1Sc1ccccc1 [1a] | 0.0515 µM | 0.0585 µM
